Legend:
Experiment in all cases: relative viability (nuclei count vs DMSO), 5 days (fraction); higher = more cells survive
RERF-LC-KJ = test system: RERF-LC-KJ
Procedure, shortened: (§1)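 Values are medians from duplicate plates. Each reflects relative viability, defined as the nuclei count of treated wells over that of vehicle wells. Lung cancer cell lines in 1536-well plates were pin-tool dosed one day after seeding with one drug alone or with a fixed anchor-drug dose plus five library-drug doses (not always all listed) in √10 steps, then fixed, stained and imaged at 4× after 5 days.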

EBC-1 = test system: EBC-1
Procedure, shortened: as §1

NCI-H520 = test system: NCI-H520
Procedure, shortened: as §1

NCI-H1651 = test system: NCI-H1651
Procedure, shortened: as §1

Calu-6 = test system: Calu-6
Procedure, shortened: as §1

A549 = test system: A549
Procedure, shortened: as §1

IA-LM = test system: IA-LM
Procedure, shortened: as §1

NCI-H1299 = test system: NCI-H1299
Procedure, shortened: as §1

NCI-H1703 = test system: NCI-H1703
Procedure, shortened: as §1

CC1(C)CCC(c2ccc(Cl)cc2)=C(CN2CCN(c3ccc(C(=O)NS(=O)(=O)c4ccc(N[C@H](CCN5CCOCC5)CSc5ccccc5)c(S(=O)(=O)C(F)(F)F)c4)cc3)CC2)C1 [Navitoclax] + CS(=O)(=O)N1CCN(Cc2cc3nc(-c4cccc5[nH]ncc45)nc(N4CCOCC4)c3s2)CC1 [Pictilisib] (partner 1 µM)
relative viability (RERF-LC-KJ; first compound 0.005 µM): 0.446 | relative viability (RERF-LC-KJ; first compound 0.01581 µM): 0.55 | relative viability (RERF-LC-KJ; first compound 0.05 µM): 0.589 | relative viability (RERF-LC-KJ; first compound 0.1581 µM): 0.476 | relative viability (RERF-LC-KJ; first compound 0.5 µM): 0.568 | relative viability (EBC-1; first compound 0.005 µM): 0.411 | relative viability (EBC-1; first compound 0.01581 µM): 0.378 | relative viability (EBC-1; first compound 0.05 µM): 0.448 | relative viability (EBC-1; first compound 0.1581 µM): 0.575 | relative viability (EBC-1; first compound 0.5 µM): 0.138 | relative viability (NCI-H520; first compound 0.005 µM): 0.305 | relative viability (NCI-H520; first compound 0.01581 µM): 0.374 | relative viability (NCI-H520; first compound 0.05 µM): 0.3 | relative viability (NCI-H520; first compound 0.1581 µM): 0.322 | relative viability (NCI-H520; first compound 0.5 µM): 0.281 | relative viability (NCI-H1651; first compound 0.005 µM): 0.592 | relative viability (NCI-H1651; first compound 0.01581 µM): 0.687 | relative viability (NCI-H1651; first compound 0.1581 µM): 0.561 | relative viability (NCI-H1651; first compound 0.5 µM): 0.559 | relative viability (Calu-6; first compound 0.005 µM): 0.891 | relative viability (Calu-6; first compound 0.01581 µM): 1.03 | relative viability (Calu-6; first compound 0.05 µM): 1.01 | relative viability (Calu-6; first compound 0.1581 µM): 0.775 | relative viability (Calu-6; first compound 0.5 µM): 0.752 | relative viability (A549; first compound 0.005 µM): 0.418 | relative viability (A549; first compound 0.01581 µM): 0.425 | relative viability (A549; first compound 0.05 µM): 0.685 | relative viability (A549; first compound 0.1581 µM): 0.51 | relative viability (A549; first compound 0.5 µM): 0.504 | relative viability (IA-LM; first compound 0.005 µM): 0.466 | relative viability (IA-LM; first compound 0.01581 µM): 0.321 | relative viability (IA-LM; first compound 0.05 µM): 0.404 | relative viability (IA-LM; first compound 0.1581 µM): 0.457 | relative viability (IA-LM; first compound 0.5 µM): 0.292 | relative viability (NCI-H1299; first compound 0.005 µM): 0.717 | relative viability (NCI-H1299; first compound 0.01581 µM): 0.943 | relative viability (NCI-H1299; first compound 0.05 µM): 0.874 | relative viability (NCI-H1299; first compound 0.1581 µM): 0.822 | relative viability (NCI-H1299; first compound 0.5 µM): 0.819 | relative viability (NCI-H1703; first compound 0.005 µM): 0.244 | relative viability (NCI-H1703; first compound 0.01581 µM): 0.28 | relative viability (NCI-H1703; first compound 0.05 µM): 0.263 | relative viability (NCI-H1703; first compound 0.1581 µM): 0.239 | relative viability (NCI-H1703; first compound 0.5 µM): 0.245

CC1(C)CCC(c2ccc(Cl)cc2)=C(CN2CCN(c3ccc(C(=O)NS(=O)(=O)c4ccc(N[C@H](CCN5CCOCC5)CSc5ccccc5)c(S(=O)(=O)C(F)(F)F)c4)cc3)CC2)C1 [Navitoclax] + C[C@@H](Oc1cc(-c2cnn(C3CCNCC3)c2)cnc1N)c1c(Cl)ccc(F)c1Cl [Crizotinib] (partner 1 µM)
relative viability (RERF-LC-KJ; first compound 0.005 µM): 0.825 | relative viability (RERF-LC-KJ; first compound 0.01581 µM): 0.712 | relative viability (RERF-LC-KJ; first compound 0.05 µM): 0.789 | relative viability (RERF-LC-KJ; first compound 0.1581 µM): 0.796 | relative viability (RERF-LC-KJ; first compound 0.5 µM): 0.833 | relative viability (EBC-1; first compound 0.005 µM): 0.178 | relative viability (EBC-1; first compound 0.01581 µM): 0.227 | relative viability (EBC-1; first compound 0.05 µM): 0.192 | relative viability (EBC-1; first compound 0.1581 µM): 0.195 | relative viability (EBC-1; first compound 0.5 µM): 0.204 | relative viability (NCI-H520; first compound 0.005 µM): 0.751 | relative viability (NCI-H520; first compound 0.01581 µM): 0.715 | relative viability (NCI-H520; first compound 0.05 µM): 0.762 | relative viability (NCI-H520; first compound 0.1581 µM): 0.737 | relative viability (NCI-H520; first compound 0.5 µM): 0.79 | relative viability (NCI-H1651; first compound 0.005 µM): 0.877 | relative viability (NCI-H1651; first compound 0.01581 µM): 0.939 | relative viability (NCI-H1651; first compound 0.05 µM): 0.78 | relative viability (NCI-H1651; first compound 0.1581 µM): 0.821 | relative viability (NCI-H1651; first compound 0.5 µM): 0.839 | relative viability (Calu-6; first compound 0.005 µM): 0.843 | relative viability (Calu-6; first compound 0.01581 µM): 0.812 | relative viability (Calu-6; first compound 0.05 µM): 0.894 | relative viability (Calu-6; first compound 0.1581 µM): 0.741 | relative viability (Calu-6; first compound 0.5 µM): 0.78 | relative viability (A549; first compound 0.005 µM): 0.756 | relative viability (A549; first compound 0.01581 µM): 0.805 | relative viability (A549; first compound 0.05 µM): 0.825 | relative viability (A549; first compound 0.1581 µM): 0.729 | relative viability (A549; first compound 0.5 µM): 0.744 | relative viability (IA-LM; first compound 0.005 µM): 0.861 | relative viability (IA-LM; first compound 0.01581 µM): 0.636 | relative viability (IA-LM; first compound 0.05 µM): 0.875 | relative viability (IA-LM; first compound 0.1581 µM): 0.944 | relative viability (IA-LM; first compound 0.5 µM): 0.908 | relative viability (NCI-H1299; first compound 0.005 µM): 0.99 | relative viability (NCI-H1299; first compound 0.01581 µM): 0.99 | relative viability (NCI-H1299; first compound 0.05 µM): 1.02 | relative viability (NCI-H1299; first compound 0.1581 µM): 0.926 | relative viability (NCI-H1299; first compound 0.5 µM): 0.981 | relative viability (NCI-H1703; first compound 0.005 µM): 0.73 | relative viability (NCI-H1703; first compound 0.01581 µM): 0.602 | relative viability (NCI-H1703; first compound 0.05 µM): 1.22 | relative viability (NCI-H1703; first compound 0.1581 µM): 0.726 | relative viability (NCI-H1703; first compound 0.5 µM): 0.754

CC1(C)CCC(c2ccc(Cl)cc2)=C(CN2CCN(c3ccc(C(=O)NS(=O)(=O)c4ccc(N[C@H](CCN5CCOCC5)CSc5ccccc5)c(S(=O)(=O)C(F)(F)F)c4)cc3)CC2)C1 [Navitoclax] + C[C@]1(O)C[C@@H](c2nc(-c3ccc4ccc(-c5ccccc5)nc4c3)c3c(N)nccn32)C1 [Linsitinib] (partner 1 µM)
relative viability (RERF-LC-KJ; first compound 0.005 µM): 0.905 | relative viability (RERF-LC-KJ; first compound 0.01581 µM): 0.859 | relative viability (RERF-LC-KJ; first compound 0.05 µM): 0.927 | relative viability (RERF-LC-KJ; first compound 0.1581 µM): 0.915 | relative viability (RERF-LC-KJ; first compound 0.5 µM): 0.904 | relative viability (EBC-1; first compound 0.005 µM): 0.893 | relative viability (EBC-1; first compound 0.01581 µM): 1.09 | relative viability (EBC-1; first compound 0.05 µM): 0.974 | relative viability (EBC-1; first compound 0.1581 µM): 1.05 | relative viability (EBC-1; first compound 0.5 µM): 0.86 | relative viability (NCI-H520; first compound 0.005 µM): 0.891 | relative viability (NCI-H520; first compound 0.01581 µM): 1.15 | relative viability (NCI-H520; first compound 0.05 µM): 1.12 | relative viability (NCI-H520; first compound 0.1581 µM): 0.832 | relative viability (NCI-H520; first compound 0.5 µM): 0.771 | relative viability (NCI-H1651; first compound 0.005 µM): 0.945 | relative viability (NCI-H1651; first compound 0.01581 µM): 1.25 | relative viability (NCI-H1651; first compound 0.1581 µM): 0.966 | relative viability (NCI-H1651; first compound 0.5 µM): 0.937 | relative viability (Calu-6; first compound 0.005 µM): 0.927 | relative viability (Calu-6; first compound 0.01581 µM): 0.984 | relative viability (Calu-6; first compound 0.05 µM): 0.965 | relative viability (Calu-6; first compound 0.1581 µM): 0.903 | relative viability (Calu-6; first compound 0.5 µM): 0.918 | relative viability (A549; first compound 0.005 µM): 0.681 | relative viability (A549; first compound 0.01581 µM): 0.669 | relative viability (A549; first compound 0.05 µM): 0.511 | relative viability (A549; first compound 0.1581 µM): 0.558 | relative viability (A549; first compound 0.5 µM): 0.591 | relative viability (IA-LM; first compound 0.005 µM): 0.551 | relative viability (IA-LM; first compound 0.01581 µM): 0.793 | relative viability (IA-LM; first compound 0.05 µM): 0.537 | relative viability (IA-LM; first compound 0.1581 µM): 0.587 | relative viability (IA-LM; first compound 0.5 µM): 0.654 | relative viability (NCI-H1299; first compound 0.005 µM): 0.949 | relative viability (NCI-H1299; first compound 0.01581 µM): 1 | relative viability (NCI-H1299; first compound 0.05 µM): 0.878 | relative viability (NCI-H1299; first compound 0.1581 µM): 0.981 | relative viability (NCI-H1299; first compound 0.5 µM): 0.984 | relative viability (NCI-H1703; first compound 0.005 µM): 0.935 | relative viability (NCI-H1703; first compound 0.01581 µM): 1 | relative viability (NCI-H1703; first compound 0.05 µM): 1.19 | relative viability (NCI-H1703; first compound 0.1581 µM): 1 | relative viability (NCI-H1703; first compound 0.5 µM): 0.813
